Test results published in publication PMC1281266, “Impact of Polychlorinated Biphenyls Contamination on Estrogenic Activity in Human Male Serum” (Environmental Health Perspectives, 2005).

Legend:
[1] = system: T47D.Luc cells; assay: Neutral red uptake cytotoxicity assay, 24-hr exposure; format: cell-based, human; conditions: lowest concentration causing a significant decrease of cell viability; 24-hr exposure Neutral Red uptake
Procedure: We determined estrogenic activities of 17 prevalent PCB congeners using the ER-CALUX bioassay (BioDetection Systems) using the human breast carcinoma T47D.Luc cell line, stably transfected with pEREtataLuc construct ([Legler et al. 1999]; [Machala et al. 2004]). ER-mediated activity was also determined in the cells treated with either total serum hexane/diethyl ether extracts or with a fraction of POPs obtained by a consequent sulfuric acid/silica fractionation. […] We determined cytotoxicity of extracts or individual PCBs by a neutral red uptake assay after a 24-hr exposure.

[2] = system: rat uterus; design: method as in Li et al. 1994; conditions: at very high concentrations; ref Li et al. 1994; cited from earlier work
[3] = system: MCF-7 cells; design: method as in Bonenfeld-Jorgensen et al. 2001; conditions: ref Bonenfeld-Jorgensen et al. 2001; cited from earlier work

Clc1cc(Cl)c(-c2cc(Cl)c(Cl)cc2Cl)cc1Cl [PCB 153, 2,2′,4,4′,5,5′-Hexachlorobiphenyl]
Cytotoxicity LOEC [1]: 20 µM | Estrogenicity in the acute 2-day immature rat uterine weight assay [2]: estrogenic | Antiestrogenic effects in reporter gene and cell proliferation MCF-7 assays [3]: Antiestrogenic effects
